Experimental data: PubChem BioAssay (NCI)
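96-well plates; 48 h exposure; 5 concentrations. Endpoints by linear interpolation between flanking doses. Not reached: highest tested concentration assigned. GI50: concentration for 50% inhibition of growth. Definition used: TGI = concentration required for complete inhibition of growth.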

Tests used:
Assay in all cases: growth of human tumour cells (NCI), 48 h
OVCAR-5 ovarian = test system: OVCAR-5 ovarian
MALME-3M melanoma = test system: MALME-3M melanoma
HCT-116 colon = test system: HCT-116 colon
SN12C renal = test system: SN12C renal
SK-OV-3 ovarian = test system: SK-OV-3 ovarian
SK-MEL-28 melanoma = test system: SK-MEL-28 melanoma
A549 NSCLC = test system: A549 NSCLC
MDA-MB-435 = test system: MDA-MB-435
SW-620 colon = test system: SW-620 colon
U251 CNS = test system: U251 CNS
HT29 colon = test system: HT29 colon
CCRF-CEM leukemia = test system: CCRF-CEM leukemia
KM12 colon = test system: KM12 colon
MDA-MB-231 breast = test system: MDA-MB-231 breast
SF-295 CNS = test system: SF-295 CNS
SK-MEL-2 melanoma = test system: SK-MEL-2 melanoma
NCI-H23 lung = test system: NCI-H23 lung
RXF 393 renal = test system: RXF 393 renal
NCI/ADR-RES ovarian = test system: NCI/ADR-RES ovarian
HS 578T breast = test system: HS 578T breast
OVCAR-8 ovarian = test system: OVCAR-8 ovarian
A498 renal = test system: A498 renal
SK-MEL-5 melanoma = test system: SK-MEL-5 melanoma
MOLT-4 leukemia = test system: MOLT-4 leukemia
COLO 205 colon = test system: COLO 205 colon
LOX IMVI melanoma = test system: LOX IMVI melanoma
PC-3 prostate = test system: PC-3 prostate
BT-549 breast = test system: BT-549 breast
HOP-92 NSCLC = test system: HOP-92 NSCLC
SNB-19 CNS = test system: SNB-19 CNS
SR leukemia = test system: SR leukemia
SF-539 CNS = test system: SF-539 CNS
CAKI-1 renal = test system: CAKI-1 renal
RPMI-8226 leukemia = test system: RPMI-8226 leukemia
HCC-2998 colon = test system: HCC-2998 colon
HOP-62 NSCLC = test system: HOP-62 NSCLC
UO-31 renal = test system: UO-31 renal
OVCAR-3 ovarian = test system: OVCAR-3 ovarian
OVCAR-4 ovarian = test system: OVCAR-4 ovarian
HL-60(TB) leukemia = test system: HL-60(TB) leukemia
HCT-15 colon = test system: HCT-15 colon
TK-10 renal = test system: TK-10 renal
ACHN renal = test system: ACHN renal
NCI-H460 lung = test system: NCI-H460 lung
UACC-257 melanoma = test system: UACC-257 melanoma
K-562 leukemia = test system: K-562 leukemia
DU-145 prostate = test system: DU-145 prostate
EKVX NSCLC = test system: EKVX NSCLC
NCI-H522 lung = test system: NCI-H522 lung
IGROV1 ovarian = test system: IGROV1 ovarian
MCF7 breast = test system: MCF7 breast
786-0 renal = test system: 786-0 renal
SF-268 CNS = test system: SF-268 CNS
T-47D breast = test system: T-47D breast
M14 melanoma = test system: M14 melanoma
SNB-75 CNS = test system: SNB-75 CNS
UACC-62 melanoma = test system: UACC-62 melanoma
NCI-H226 lung = test system: NCI-H226 lung

SMILES: O=C(Nc1ccc(-n2ccc3c(NC(=O)c4ccccc4)nccc32)cc1)Nc1ccc(Cl)c(Cl)c1
- GI50 (OVCAR-5 ovarian): 3520 nM
- TGI (OVCAR-5 ovarian): 32900 nM
- GI50 (MALME-3M melanoma): 1700 nM
- TGI (MALME-3M melanoma): 3780 nM
- GI50 (HCT-116 colon): 488 nM
- TGI (HCT-116 colon): 1740 nM
- GI50 (SN12C renal): 2010 nM
- TGI (SN12C renal): 9080 nM
- GI50 (SK-OV-3 ovarian): 1200 nM
- TGI (SK-OV-3 ovarian): 3290 nM
- GI50 (SK-MEL-28 melanoma): 1490 nM
- TGI (SK-MEL-28 melanoma): 3070 nM
- GI50 (A549 NSCLC): 1010 nM
- TGI (A549 NSCLC): 2570 nM
- GI50 (MDA-MB-435): 1310 nM
- TGI (MDA-MB-435): 2810 nM
- GI50 (SW-620 colon): 1080 nM
- TGI (SW-620 colon): 2510 nM
- GI50 (U251 CNS): 373 nM
- TGI (U251 CNS): 1920 nM
- GI50 (HT29 colon): 664 nM
- TGI (HT29 colon): 2330 nM
- GI50 (CCRF-CEM leukemia): 252 nM
- TGI (CCRF-CEM leukemia): 1930 nM
- GI50 (KM12 colon): 985 nM
- TGI (KM12 colon): 2500 nM
- GI50 (MDA-MB-231 breast): 1230 nM
- TGI (MDA-MB-231 breast): 2820 nM
- GI50 (SF-295 CNS): 877 nM
- TGI (SF-295 CNS): 3180 nM
- GI50 (SK-MEL-2 melanoma): 1980 nM
- TGI (SK-MEL-2 melanoma): 4870 nM
- GI50 (NCI-H23 lung): 5200 nM
- TGI (NCI-H23 lung): 28600 nM
- GI50 (RXF 393 renal): 624 nM
- TGI (RXF 393 renal): 1960 nM
- GI50 (NCI/ADR-RES ovarian): 1310 nM
- TGI (NCI/ADR-RES ovarian): 4520 nM
- GI50 (HS 578T breast): 791 nM
- TGI (HS 578T breast): 3470 nM
- GI50 (OVCAR-8 ovarian): 1260 nM
- TGI (OVCAR-8 ovarian): 3700 nM
- GI50 (A498 renal): 2580 nM
- TGI (A498 renal): 7580 nM
- GI50 (SK-MEL-5 melanoma): 748 nM
- TGI (SK-MEL-5 melanoma): 2200 nM
- GI50 (MOLT-4 leukemia): 908 nM
- TGI (MOLT-4 leukemia): 8560 nM
- GI50 (COLO 205 colon): 1420 nM
- TGI (COLO 205 colon): 3270 nM
- GI50 (LOX IMVI melanoma): 503 nM
- TGI (LOX IMVI melanoma): 2280 nM
- GI50 (PC-3 prostate): 1060 nM
- TGI (PC-3 prostate): > 26600 nM
- GI50 (BT-549 breast): 3080 nM
- TGI (BT-549 breast): 17900 nM
- GI50 (HOP-92 NSCLC): 1230 nM
- TGI (HOP-92 NSCLC): 4610 nM
- GI50 (SNB-19 CNS): 1130 nM
- TGI (SNB-19 CNS): 4400 nM
- GI50 (SR leukemia): 132 nM
- TGI (SR leukemia): 932 nM
- GI50 (SF-539 CNS): 557 nM
- TGI (SF-539 CNS): 2410 nM
- GI50 (CAKI-1 renal): 1650 nM
- TGI (CAKI-1 renal): 6880 nM
- GI50 (RPMI-8226 leukemia): 482 nM
- TGI (RPMI-8226 leukemia): 3080 nM
- GI50 (HCC-2998 colon): 1470 nM
- TGI (HCC-2998 colon): 3650 nM
- GI50 (HOP-62 NSCLC): 1310 nM
- TGI (HOP-62 NSCLC): 2750 nM
- GI50 (UO-31 renal): 1600 nM
- TGI (UO-31 renal): 4100 nM
- GI50 (OVCAR-3 ovarian): 1340 nM
- TGI (OVCAR-3 ovarian): 2750 nM
- GI50 (OVCAR-4 ovarian): 1550 nM
- TGI (OVCAR-4 ovarian): 3860 nM
- GI50 (HL-60(TB) leukemia): 1250 nM
- TGI (HL-60(TB) leukemia): 4220 nM
- GI50 (HCT-15 colon): 201 nM
- TGI (HCT-15 colon): 2840 nM
- GI50 (TK-10 renal): 1820 nM
- TGI (TK-10 renal): 5290 nM
- GI50 (ACHN renal): 1220 nM
- TGI (ACHN renal): 4290 nM
- GI50 (NCI-H460 lung): 358 nM
- TGI (NCI-H460 lung): 1780 nM
- GI50 (UACC-257 melanoma): 1960 nM
- TGI (UACC-257 melanoma): 4520 nM
- GI50 (K-562 leukemia): 736 nM
- TGI (K-562 leukemia): > 100000 nM
- GI50 (DU-145 prostate): 1570 nM
- TGI (DU-145 prostate): 3920 nM
- GI50 (EKVX NSCLC): 4830 nM
- TGI (EKVX NSCLC): 44000 nM
- GI50 (NCI-H522 lung): 1450 nM
- TGI (NCI-H522 lung): 3700 nM
- GI50 (IGROV1 ovarian): 1760 nM
- TGI (IGROV1 ovarian): 11000 nM
- GI50 (MCF7 breast): 1100 nM
- TGI (MCF7 breast): 2370 nM
- GI50 (786-0 renal): 1010 nM
- TGI (786-0 renal): 2360 nM
- GI50 (SF-268 CNS): 1260 nM
- TGI (SF-268 CNS): 5970 nM
- GI50 (T-47D breast): 2030 nM
- TGI (T-47D breast): 5330 nM
- GI50 (M14 melanoma): 1470 nM
- TGI (M14 melanoma): 2930 nM
- GI50 (SNB-75 CNS): 489 nM
- TGI (SNB-75 CNS): 2340 nM
- GI50 (UACC-62 melanoma): 1230 nM
- TGI (UACC-62 melanoma): 2830 nM
- GI50 (NCI-H226 lung): 15900 nM
- TGI (NCI-H226 lung): 97700 nM
